Source: ChEMBL document CHEMBL1201862, “PubChem BioAssay data set” (2004)
The source made the active and inactive calls.

Tests used:
[1] = cytotoxicity in MIN6 insulinoma cells, dose response, cytotoxicity control, cell-based, mouse insulinoma (AID 2122); format: functional;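 also: confirmatory high-throughput counterscreen run to flag cytotoxic compounds; mouse MIN-6 beta cells carrying an insulin promoter eGFP reporter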
[2] = insulin promoter down-regulators in MIN6 cells, imaging, high-content screening, mouse beta cells (AID 1628); format: functional
[3] = tested on: Streptococcus sp. 'group A'; test: growth inhibition of control SK(-) GAS strain, dose response, counter-screen for streptokinase expression inhibitor project, luminescence, kanamycin, BacTiterGlo, confirmation (AID 1900); format: functional, organism-based
[4] = biological target: T1, Streptokinase A (Streptococcus pyogenes serotype M1, UniProt P10520); test: S. pyogenes streptokinase expression inhibitors, potency, dose response, plasminogen activation absorbance, OD405 (AID 1914); format: functional, Streptococcus pyogenes M1 GAS;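 also: secreted streptokinase activity via plasminogen activation per viability signal from cell pellet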
T1 sequence (P10520 whole entry): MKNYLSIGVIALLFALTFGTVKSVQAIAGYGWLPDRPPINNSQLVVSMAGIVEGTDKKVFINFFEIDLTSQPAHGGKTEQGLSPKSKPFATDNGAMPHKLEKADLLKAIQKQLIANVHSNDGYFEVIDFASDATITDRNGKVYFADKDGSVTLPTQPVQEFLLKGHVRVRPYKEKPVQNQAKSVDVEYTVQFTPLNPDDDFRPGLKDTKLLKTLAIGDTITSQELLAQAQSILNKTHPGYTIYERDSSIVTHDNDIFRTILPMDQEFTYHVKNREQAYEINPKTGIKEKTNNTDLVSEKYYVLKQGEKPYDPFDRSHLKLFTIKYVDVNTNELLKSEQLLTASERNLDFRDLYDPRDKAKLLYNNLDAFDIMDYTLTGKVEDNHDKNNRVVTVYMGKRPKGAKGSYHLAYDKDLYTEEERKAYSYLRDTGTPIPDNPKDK

[5] = tested on: Streptococcus; test: Group A Streptococcus viability loss, dose response, counter-screen for streptokinase expression inhibitor project, luminescence, BacTiterGlo (AID 1915); format: functional, organism-based;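 also: potency for reduction of bacterial viability or growth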
[6] = biological target: T2, Calpain-2 catalytic subunit (Sus scrofa, UniProt P43367); test: pig calpain II inhibitor potency, dose response, biochemical, fluorogenic peptide substrate (AID 1420); format: functional
T2 sequence (P43367 whole entry): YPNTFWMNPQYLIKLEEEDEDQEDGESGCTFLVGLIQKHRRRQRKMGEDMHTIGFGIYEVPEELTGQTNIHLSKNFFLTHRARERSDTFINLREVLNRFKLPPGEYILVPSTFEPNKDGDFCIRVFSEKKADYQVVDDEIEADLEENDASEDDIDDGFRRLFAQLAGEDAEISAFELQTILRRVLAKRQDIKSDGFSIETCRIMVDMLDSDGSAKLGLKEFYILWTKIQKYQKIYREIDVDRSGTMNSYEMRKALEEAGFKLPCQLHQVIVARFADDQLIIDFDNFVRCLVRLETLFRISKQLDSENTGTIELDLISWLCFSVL

[7] = tested on: Escherichia coli; test: microbe, parasite or virus in culture
[8] = biological target: T3, Carboxy-terminal domain RNA polymerase II polypeptide A small phosphatase 1 (Homo sapiens, UniProt Q9GZU7); test: inhibitors of CTDSP1, concentration-response testing, biochemical assay, absorbance-based, actives from ultra-high-throughput screening (AID 540297); format: functional
T3 sequence (Q9GZU7 whole entry): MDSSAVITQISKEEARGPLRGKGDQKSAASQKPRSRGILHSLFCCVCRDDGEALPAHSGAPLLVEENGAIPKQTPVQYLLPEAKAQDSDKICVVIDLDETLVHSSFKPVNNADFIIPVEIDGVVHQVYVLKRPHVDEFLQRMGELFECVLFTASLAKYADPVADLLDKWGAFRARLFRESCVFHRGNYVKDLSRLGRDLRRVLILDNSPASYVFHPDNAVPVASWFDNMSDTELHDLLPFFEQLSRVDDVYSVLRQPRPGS

[9] = biological target: SUMO E1/E2 (Homo sapiens, UniProt P63279+Q9UBE0+Q9UBT2); test: SAR analysis of SUMOylation using HTRF in an in-Vitro dose response assay. [Related pubchem assays (depositor defined):AID2006, AID2011, AID2018, AID2069, AID2658]; format: functional
SUMO E1/E2, sequence (Q9UBE0 whole entry): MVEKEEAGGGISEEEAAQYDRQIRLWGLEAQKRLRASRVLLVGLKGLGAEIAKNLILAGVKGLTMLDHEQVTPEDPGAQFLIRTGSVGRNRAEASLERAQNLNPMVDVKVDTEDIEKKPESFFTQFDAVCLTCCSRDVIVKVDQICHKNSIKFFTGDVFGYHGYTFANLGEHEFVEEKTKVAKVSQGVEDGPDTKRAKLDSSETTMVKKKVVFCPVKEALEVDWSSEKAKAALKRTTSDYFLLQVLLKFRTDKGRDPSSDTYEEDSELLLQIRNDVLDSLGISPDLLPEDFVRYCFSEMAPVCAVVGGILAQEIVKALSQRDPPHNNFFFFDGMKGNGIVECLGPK
SUMO E1/E2, sequence (Q9UBT2 whole entry): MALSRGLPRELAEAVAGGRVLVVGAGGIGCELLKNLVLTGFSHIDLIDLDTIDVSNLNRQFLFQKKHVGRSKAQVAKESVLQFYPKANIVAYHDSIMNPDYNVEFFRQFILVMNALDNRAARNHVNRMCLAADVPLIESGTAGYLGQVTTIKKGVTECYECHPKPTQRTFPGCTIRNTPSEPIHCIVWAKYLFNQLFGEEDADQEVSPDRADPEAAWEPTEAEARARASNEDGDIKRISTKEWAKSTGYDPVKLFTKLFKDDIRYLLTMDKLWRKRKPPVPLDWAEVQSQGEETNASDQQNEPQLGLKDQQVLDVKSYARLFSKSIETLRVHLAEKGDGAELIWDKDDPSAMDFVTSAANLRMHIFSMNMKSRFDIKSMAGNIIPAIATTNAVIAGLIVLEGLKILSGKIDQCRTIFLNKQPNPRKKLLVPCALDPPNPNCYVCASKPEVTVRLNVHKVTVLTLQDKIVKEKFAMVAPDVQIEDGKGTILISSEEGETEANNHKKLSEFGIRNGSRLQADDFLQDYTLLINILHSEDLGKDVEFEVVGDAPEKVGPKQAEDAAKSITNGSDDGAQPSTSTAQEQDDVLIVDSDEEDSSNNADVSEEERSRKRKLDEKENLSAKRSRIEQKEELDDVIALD
SUMO E1/E2, sequence (P63279 whole entry): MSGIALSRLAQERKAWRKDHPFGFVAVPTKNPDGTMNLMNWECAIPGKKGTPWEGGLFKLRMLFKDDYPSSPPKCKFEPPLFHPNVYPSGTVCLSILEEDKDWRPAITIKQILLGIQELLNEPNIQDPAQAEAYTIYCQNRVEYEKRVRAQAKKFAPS

[10] = biological target: T4, SUMO-activating enzyme (Homo sapiens, UniProt Q9UBT2); test: inhibitors of in vitro SUMOylation cascade, primary screen, biochemical, HTRF, uHTS (AID 2006); format: protein-complex assay
T4 sequence (Q9UBE0 whole entry): as the sequence (Q9UBE0 whole entry) above
T4 sequence (Q9UBT2 whole entry): as the sequence (Q9UBT2 whole entry) above

[11] = biological target: T4, SUMO-activating enzyme; test: SUMOylation inhibitor hit validation, confirmation, SUMOylation inhibitor project, biochemical, AlphaScreen (AID 2018); format: functional
[12] = tested on: HEK293; test: cells; details: Homo sapiens
[13] = tested on: HEK293; test: cells; details: Homo sapiens; remark: listed apart in the source
[14] = biological target: T5, Replicative DNA helicase DnaB (Mycobacterium tuberculosis, UniProt P9WMR3); test: DnaB intein splicing inhibitors, dose response, biochemical, cell-free fluorescence (AID 449749); format: functional
T5 sequence (P9WMR3 whole entry): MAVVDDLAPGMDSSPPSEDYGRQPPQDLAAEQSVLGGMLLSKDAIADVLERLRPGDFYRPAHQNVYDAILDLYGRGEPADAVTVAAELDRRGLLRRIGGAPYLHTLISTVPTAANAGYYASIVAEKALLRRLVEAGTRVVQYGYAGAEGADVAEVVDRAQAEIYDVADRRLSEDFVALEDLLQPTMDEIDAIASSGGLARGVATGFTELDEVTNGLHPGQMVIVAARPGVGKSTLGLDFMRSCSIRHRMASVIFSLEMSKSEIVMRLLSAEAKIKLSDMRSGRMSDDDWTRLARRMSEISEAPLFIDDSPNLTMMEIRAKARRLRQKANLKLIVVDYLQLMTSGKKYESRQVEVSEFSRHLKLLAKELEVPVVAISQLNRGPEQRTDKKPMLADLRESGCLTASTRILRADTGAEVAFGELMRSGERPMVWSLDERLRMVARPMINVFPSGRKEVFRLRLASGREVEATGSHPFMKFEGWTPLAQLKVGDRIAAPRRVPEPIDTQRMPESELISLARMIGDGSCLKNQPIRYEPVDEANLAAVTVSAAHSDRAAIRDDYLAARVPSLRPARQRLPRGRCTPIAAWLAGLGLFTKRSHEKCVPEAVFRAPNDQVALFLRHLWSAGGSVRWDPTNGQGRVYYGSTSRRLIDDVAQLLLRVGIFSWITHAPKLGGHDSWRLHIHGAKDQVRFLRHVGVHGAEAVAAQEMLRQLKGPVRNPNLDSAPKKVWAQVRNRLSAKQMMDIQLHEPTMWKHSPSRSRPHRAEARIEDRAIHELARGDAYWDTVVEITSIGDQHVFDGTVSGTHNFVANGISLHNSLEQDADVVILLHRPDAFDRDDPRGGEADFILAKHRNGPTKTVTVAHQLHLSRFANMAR

[15] = biological target: T6, Protein RecA (Mycobacterium tuberculosis, UniProt P9WHJ3); test: Fluorescence Cell-Free Homogeneous Dose Retest to Identify Inhibitors of RecA-Intein Splicing Activity. [Related pubchem assays (depositor defined):AID2097, AID2223, AID489010, AID492950]; format: functional
T6 sequence (P9WHJ3 whole entry): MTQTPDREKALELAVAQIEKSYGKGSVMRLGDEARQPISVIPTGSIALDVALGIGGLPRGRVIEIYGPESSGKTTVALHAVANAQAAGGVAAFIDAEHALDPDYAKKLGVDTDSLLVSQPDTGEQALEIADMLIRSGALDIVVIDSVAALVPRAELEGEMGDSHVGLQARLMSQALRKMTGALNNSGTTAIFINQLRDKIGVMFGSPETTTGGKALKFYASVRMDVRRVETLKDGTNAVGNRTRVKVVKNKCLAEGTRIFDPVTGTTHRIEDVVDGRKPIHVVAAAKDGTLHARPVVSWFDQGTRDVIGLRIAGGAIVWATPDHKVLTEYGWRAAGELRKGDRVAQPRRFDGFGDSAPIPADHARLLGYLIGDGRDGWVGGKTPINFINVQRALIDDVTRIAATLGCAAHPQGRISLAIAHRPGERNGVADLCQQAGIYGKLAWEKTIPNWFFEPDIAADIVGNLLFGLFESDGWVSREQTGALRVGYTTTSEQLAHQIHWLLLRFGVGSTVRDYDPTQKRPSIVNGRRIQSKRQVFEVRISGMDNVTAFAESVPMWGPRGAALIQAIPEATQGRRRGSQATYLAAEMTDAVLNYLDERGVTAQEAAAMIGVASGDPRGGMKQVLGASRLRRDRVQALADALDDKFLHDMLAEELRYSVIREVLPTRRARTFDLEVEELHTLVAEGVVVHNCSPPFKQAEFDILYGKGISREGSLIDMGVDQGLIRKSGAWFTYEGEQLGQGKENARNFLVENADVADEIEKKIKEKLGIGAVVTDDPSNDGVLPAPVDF

[16] = biological target: Cytochrome P450 2D6 (Homo sapiens, UniProt P10635);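 also: CYP2D6 member of a cytochrome P450 panel assay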
Cytochrome P450 2D6, sequence (P10635 whole entry): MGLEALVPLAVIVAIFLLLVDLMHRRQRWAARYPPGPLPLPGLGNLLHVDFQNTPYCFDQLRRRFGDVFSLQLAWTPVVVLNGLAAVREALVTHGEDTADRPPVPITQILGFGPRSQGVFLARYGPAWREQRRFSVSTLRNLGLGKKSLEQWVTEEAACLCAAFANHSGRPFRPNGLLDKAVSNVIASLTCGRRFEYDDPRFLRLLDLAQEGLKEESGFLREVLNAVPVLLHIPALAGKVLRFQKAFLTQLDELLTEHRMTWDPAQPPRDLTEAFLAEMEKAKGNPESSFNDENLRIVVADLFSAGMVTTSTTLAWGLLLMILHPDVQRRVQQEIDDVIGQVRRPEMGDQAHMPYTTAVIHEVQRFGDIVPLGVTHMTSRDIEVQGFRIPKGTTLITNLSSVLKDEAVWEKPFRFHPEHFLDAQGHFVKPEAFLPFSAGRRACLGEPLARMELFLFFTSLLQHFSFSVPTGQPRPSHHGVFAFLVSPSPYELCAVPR

[17] = biological target: Cytochrome P450 3A4 (Homo sapiens, UniProt P08684);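 also: CYP3A4 tested as one member of a cytochrome P450 panel screen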
[18] = biological target: T7, Voltage-gated N-type calcium channel alpha-1B subunit/Amyloid beta A4 precursor protein-binding family A member 1 (Homo sapiens, UniProt Q00975+Q02410); test: disruptors of Mint-PDZ/N-type channel peptide interaction – biochemical, HTRF, set 2, SAR follow-up (AID 434980); format: functional
T7 sequence (Q00975 whole entry): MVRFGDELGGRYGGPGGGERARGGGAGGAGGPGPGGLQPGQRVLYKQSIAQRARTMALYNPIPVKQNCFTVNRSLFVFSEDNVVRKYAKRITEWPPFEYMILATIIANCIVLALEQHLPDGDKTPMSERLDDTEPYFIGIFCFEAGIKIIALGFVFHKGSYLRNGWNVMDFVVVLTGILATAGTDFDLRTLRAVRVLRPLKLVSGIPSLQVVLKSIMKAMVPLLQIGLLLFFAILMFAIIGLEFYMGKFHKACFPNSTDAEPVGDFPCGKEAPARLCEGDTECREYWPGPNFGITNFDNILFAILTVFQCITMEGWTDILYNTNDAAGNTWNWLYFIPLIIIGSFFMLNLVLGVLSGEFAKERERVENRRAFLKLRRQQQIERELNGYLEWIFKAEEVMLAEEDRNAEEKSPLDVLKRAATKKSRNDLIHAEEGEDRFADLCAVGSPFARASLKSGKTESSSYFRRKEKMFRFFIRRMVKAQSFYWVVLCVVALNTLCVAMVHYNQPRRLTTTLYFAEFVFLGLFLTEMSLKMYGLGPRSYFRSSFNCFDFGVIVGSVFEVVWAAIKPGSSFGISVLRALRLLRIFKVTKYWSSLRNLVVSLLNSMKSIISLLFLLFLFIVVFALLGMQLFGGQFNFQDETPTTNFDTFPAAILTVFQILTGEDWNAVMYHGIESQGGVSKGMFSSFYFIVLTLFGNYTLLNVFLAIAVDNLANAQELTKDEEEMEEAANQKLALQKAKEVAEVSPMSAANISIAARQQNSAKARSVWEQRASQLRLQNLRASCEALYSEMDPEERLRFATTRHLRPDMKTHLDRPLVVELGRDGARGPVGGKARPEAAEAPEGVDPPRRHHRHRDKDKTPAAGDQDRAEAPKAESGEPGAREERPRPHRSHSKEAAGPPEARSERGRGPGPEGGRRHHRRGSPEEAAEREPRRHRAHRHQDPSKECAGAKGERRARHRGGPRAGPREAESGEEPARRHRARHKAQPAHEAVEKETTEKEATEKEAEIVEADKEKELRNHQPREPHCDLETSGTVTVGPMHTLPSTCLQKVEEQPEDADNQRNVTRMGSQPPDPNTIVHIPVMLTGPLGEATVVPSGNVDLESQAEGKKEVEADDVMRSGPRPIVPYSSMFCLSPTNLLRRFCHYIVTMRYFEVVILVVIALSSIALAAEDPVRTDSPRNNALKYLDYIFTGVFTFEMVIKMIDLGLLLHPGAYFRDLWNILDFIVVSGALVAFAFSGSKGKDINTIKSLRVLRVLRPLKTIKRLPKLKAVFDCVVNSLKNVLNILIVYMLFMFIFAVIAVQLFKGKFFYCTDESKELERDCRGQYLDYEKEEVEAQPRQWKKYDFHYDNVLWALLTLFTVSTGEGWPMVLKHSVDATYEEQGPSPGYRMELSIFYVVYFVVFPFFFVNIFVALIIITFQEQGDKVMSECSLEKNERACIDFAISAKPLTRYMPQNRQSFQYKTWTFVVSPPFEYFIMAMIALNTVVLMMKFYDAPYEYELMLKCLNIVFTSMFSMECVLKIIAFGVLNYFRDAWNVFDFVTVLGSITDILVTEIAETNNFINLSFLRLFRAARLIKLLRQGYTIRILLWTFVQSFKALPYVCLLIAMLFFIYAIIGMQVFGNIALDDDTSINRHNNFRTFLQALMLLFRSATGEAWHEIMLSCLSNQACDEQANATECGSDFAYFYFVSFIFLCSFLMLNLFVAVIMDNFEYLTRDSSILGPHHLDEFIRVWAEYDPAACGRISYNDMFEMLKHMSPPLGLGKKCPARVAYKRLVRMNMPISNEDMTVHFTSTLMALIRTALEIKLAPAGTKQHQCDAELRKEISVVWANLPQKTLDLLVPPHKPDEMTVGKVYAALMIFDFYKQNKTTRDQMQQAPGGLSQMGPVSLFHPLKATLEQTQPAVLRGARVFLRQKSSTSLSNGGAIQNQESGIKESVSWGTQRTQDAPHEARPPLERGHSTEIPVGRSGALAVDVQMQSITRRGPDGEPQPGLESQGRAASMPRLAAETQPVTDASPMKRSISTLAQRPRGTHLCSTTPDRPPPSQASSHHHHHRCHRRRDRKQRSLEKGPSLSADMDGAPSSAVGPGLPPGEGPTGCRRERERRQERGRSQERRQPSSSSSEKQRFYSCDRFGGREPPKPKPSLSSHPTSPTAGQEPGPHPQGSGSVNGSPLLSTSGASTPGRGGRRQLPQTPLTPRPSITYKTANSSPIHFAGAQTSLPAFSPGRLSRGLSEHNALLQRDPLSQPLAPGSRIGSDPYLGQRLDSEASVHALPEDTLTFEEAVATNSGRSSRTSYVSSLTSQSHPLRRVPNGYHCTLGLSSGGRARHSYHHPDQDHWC
T7 sequence (Q02410 whole entry): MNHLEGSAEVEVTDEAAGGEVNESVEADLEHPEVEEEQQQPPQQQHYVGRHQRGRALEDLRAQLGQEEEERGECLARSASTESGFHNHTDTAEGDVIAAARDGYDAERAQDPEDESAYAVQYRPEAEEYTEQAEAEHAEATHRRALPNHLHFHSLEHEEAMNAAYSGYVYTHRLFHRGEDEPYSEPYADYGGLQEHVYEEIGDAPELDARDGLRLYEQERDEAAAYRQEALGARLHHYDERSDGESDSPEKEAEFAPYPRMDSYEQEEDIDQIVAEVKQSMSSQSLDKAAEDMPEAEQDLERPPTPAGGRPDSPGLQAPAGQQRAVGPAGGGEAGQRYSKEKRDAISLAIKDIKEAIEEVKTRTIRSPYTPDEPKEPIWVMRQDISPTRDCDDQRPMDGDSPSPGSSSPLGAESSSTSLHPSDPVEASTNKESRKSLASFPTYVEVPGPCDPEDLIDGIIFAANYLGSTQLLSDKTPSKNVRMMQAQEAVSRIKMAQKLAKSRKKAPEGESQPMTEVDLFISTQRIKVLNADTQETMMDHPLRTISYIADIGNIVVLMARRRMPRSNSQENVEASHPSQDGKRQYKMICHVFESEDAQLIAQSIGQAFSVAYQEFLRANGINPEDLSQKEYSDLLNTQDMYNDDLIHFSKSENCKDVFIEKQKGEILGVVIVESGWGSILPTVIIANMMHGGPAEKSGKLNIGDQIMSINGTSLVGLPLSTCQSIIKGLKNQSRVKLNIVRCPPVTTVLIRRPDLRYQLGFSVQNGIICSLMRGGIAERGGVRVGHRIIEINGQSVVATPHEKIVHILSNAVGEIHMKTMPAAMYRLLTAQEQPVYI

[19] = biological target: T7, Voltage-gated N-type calcium channel alpha-1B subunit/Amyloid beta A4 precursor protein-binding family A member 1; test: disruptors of Mint-PDZ/N-type channel peptide interaction – biochemical, HTRF, SAR follow-up (AID 2489); format: functional
[20] = biological target: Glucose-6-phosphate 1-dehydrogenase (Homo sapiens, UniProt P11413); test: human G6PD enzyme inhibitors, dose response, selectivity assay for P. falciparum G6PD inhibitor project, biochemical, fluorescence (AID 504792); format: functional

O=C(CN1CCN(C(c2ccccc2)c2ccccc2)CC1)NC(=O)NCc1ccco1
IC50 [1]: 0.439 µM (active)
IC50 [2]: 0.468 µM (active)

CCOC(=O)c1cnc(-n2nc(C)cc2C)nc1Nc1ccc(C)cc1
EC50 [3]: 3.44 µM (active)
EC50 [4]: > 150 µM (not active)
EC50 [5]: > 150 µM (not active)
IC50 [1]: 7.89 µM (active)
IC50 [2]: 2.56 µM (active)
IC50 [6]: 5.74 µM (not active)

O=C(NCc1ccccc1)c1ccc(Br)o1
AC50 [7]: 42.9 µM (active)

COc1ccccc1NC(=O)Cn1c(O)c(N=NC(=O)c2ccccc2O)c2ccccc21
IC50 [8]: 2.74 µM (active)
IC50 [9]: 71.1 µM (active)
IC50 [10]: 23.8 µM (active)
IC50 [11]: 6.52 µM (active)

Cc1ccc(OCCn2cnc3c(N)ncnc32)cc1
EC50 [12]: > 59.6 µM (inactive)
EC50 [13]: > 59.6 µM (inactive)

O=C(CSc1ncnc2c1nnn2Cc1ccccc1F)NCC1CCCO1 (configuration not stated)
AC50 [14]: 15 µM (active)
EC50 [15]: 16.5 µM (active)
AC50 [7]: 58.3 µM (active)

Cc1sc2ccccc2[n+]1CCC(=O)O
AC50 [16]: inconclusive

C[C@@H]1/C=C\CC(=O)OC[C@H]2O[C@@H](C=C[C@@H]2O)[C@H](C)/C=C\CC(=O)OC1
AC50 [16]: inconclusive
AC50 [17]: 5.01 µM (inconclusive)

COC(=O)c1ccc(CSc2ncnc3c2sc2nc(N4CCOCC4)c4c(c23)CCCC4)o1
EC50 [12]: > 59.7 µM (inactive)
EC50 [13]: > 59.7 µM (inactive)

O=C(COC(=O)c1cc(-c2ccco2)nc2ccccc12)NCc1ccc(F)cc1
IC50 [9]: 4.64 µM (active)
IC50 [18]: 11.1 µM (active)
IC50 [19]: 30.4 µM (active)

Cc1cc(O)nc(N/N=C/c2c(C)nn(-c3ccccc3)c2Cl)n1
IC50 [20]: > 80 µM (inactive)
